# US5162304A, “Pharmaceutical compositions and methods for treatment and prophylaxis of cancer” (priority 1990, dated 1992)
# Where “and” joins values, the source holds several entries; their conditions need not be identical. Identical values can stand only once.
# How the values were obtained:
# stomach carcinoma = test: Test 9: stomach carcinoma after MNNG; assay type: in vivo, male Wistar rats; details: for Histological classification (per animal) / Borrmann's Classification (per animal): 250 mg/kg feed orally for 126 days after MNNG; for Borrmann's Classification (per animal): gross observation; for Cause of death (per animal): 250 mg/kg feed orally; for Survival time (per animal): 250 mg/kg feed, 337 = day of sacrifice
# Method: 40 male Wistar rats (8-9-week old, body weight; 110 g) were given a drinking water containing 167 μg/ml of N-methyl-N'-nitro-N-nitrosoguanidine (MNNG: a carcinogenic compound) and a feed (dry pellets CE-2, produced by CLEA JAPAN) for 210 days.
# The rats were allotted to 5 groups and treated as follows since the 211th day.
# Administered group A: n=8. The compound A of the present invention (See below. The definition is to be followed hereinafter) was administered orally in an amount of 250 mg/kg feed for 126 consecutive days.
# Administered group B: n=8. The compound B of the present invention was administered orally in an amount of 250 mg/kg feed for 126 consecutive days.
# Administered group C: n=8. The compound C of the present invention was administered orally in an amount of 250 mg/kg feed for 126 consecutive days.
# Administered group D: n=8. The compound D of the present invention was administered orally in an amount of 250 mg/kg feed for 126 consecutive days.
# On the 337th day, the survining rats were sacrificed and the stomachs were (1) subjected to Borrmann's classification according to gross observation and (2) histologically observed (haematoxylin-eosin stain or ASAN stain), and then classified as follows.
# [1] = Carcinostatic, carcinostasis-reinforcing and carcinogenesis-preventing activities (general statement)
# [2] = system: Ehrlich's ascites carcinoma cells; test: Test 1: survival of mice inoculated with Ehrlich's ascites carcinoma cells; assay type: in vivo, ddY mice; details: i.p., 10 mg/kg/day for 5 days, from 24 hours after inoculation
# Method: 5-week old ddY mice were intraperitoneally inoculated with 10^6 Ehrlich's ascites carcinoma cells. Since 24 hours later, 50 mg/ml suspension of a test compound in 0.25% (% by weight. The definition is to be followed hereinafter) solution of Pluronic F68 in physiological saline was intraperitoneally injected to 10 animals/group at a dose of 10 mg/kg/day for 5 days.
# bladder mucous membrane = test: Test 10: pathological changes in bladder mucous membrane after BBN and sodium erythorbate; assay type: in vivo, male F344 rats; details: 250 mg/kg in feed; for Number of animals with cancer / Number of animals with papilloma / Number of animals with papillary or tuberous hyperplasia: 28 observed; for Number of animals with cancer: unadministered 19 of 27; for Number of animals with papilloma: unadministered 20 of 27; for Number of animals with papillary or tuberous hyperplasia: unadministered 27 of 27; for Cancer, incidence: unadministered 70; for Papilloma, incidence: unadministered 74; for Papillary or tuberous hyperplasia, incidence: unadministered 100
# Source text: 5 groups of 6-week old male F344 rats were givn 0.05% (by weight. The definition is to be followed hereinafter) aqueous solution of N-butyl-N-(4-hydroxybutyl)nitrosoamine (BBN: bladder carcinogenic compound), as an initiator, by water supplying bottles for 4 weeks.
# adenocarcinoma 755 cells = test: Test 2: tumor growth suppression in mice inoculated with adenocarcinoma 755 cells; assay type: in vivo, F1 mongrel mice of C57BL/6 and DBA/2; details: s.c., 10 mg/kg/day for 5 days; 10 days after inoculation; control 6.5
# Source text: 6-week old F1 mongrel mice of C57BL/6 and DBA/2 were inoculated under back skin with 10^6 adenocarcinoma 755 cells. […] The animals were sacrificed 10 days after the inoculation with adenocarcinoma 755 cells, and the tumor was excised.
# [3] = system: Ehrlich's mouse ascites carcinoma cells; test: Test 7 and Comparing Tests 3 and 4: survival of mice inoculated with Ehrlich's mouse ascites carcinoma cells; assay type: in vivo, male C57BL/6 mice; details: bleomycin + isomonool; for Number of surviving mice: of 8
# Method: 5-week old male C57BL/6 mice were intraperitoneally inoculated with 10^6 Ehrlich's mouse ascites carcinoma cells. Since 24 hours later, a 50 μg/ml solution of bleomycin in 0.25% HCO-60 solution in physiological saline, and a suspension containing 50 μg/ml of bleomycin and 5 μg/ml of 14-methyl-1-pentadecanol were intraperitoneally injected at a dose of 10 mg/kg·day and 11 mg/kg·day, respectively, to each 8 animals/group for 5 days. The survival time of the injected mice was then followed.
# [4] = system: mouse neuroblastoma NAs-1 cells; test: Test 3: growth of mouse neuroblastoma NAs-1 cells; assay type: cell-based; details: for tumor growth suppressing effect: NAs-1 cells; for growth suppressed to: treatment conditions not given
# Method: (§1) 14-methyl-1-pentadecanol and 18-methyl-1-nonadecanol were tested for tumor growth suppressing effects on three different tumor cell strains (Ehrlich's mouse ascites carcinoma cells, human lung carcinoma A549 cells and mouse neuroblastoma NAs-1 cells).
# The growth of mouse neuroblastoma NAs-1 cells was suppressed to 7.8×10^-3 and 6.5×10^-3, respectively.
# [5] = system: Ehrlich's mouse ascites carcinoma cells; test: Test 3: growth of Ehrlich's mouse ascites carcinoma cells; assay type: cell-based; details: for tumor growth suppressing effect: Ehrlich's cells; for activity at 10 µM: Mus musculus, Ehrlich, 120 h, 5-day treatment at 10 μM, read-out: growth suppressed to
# Method: as §1
# These isomonools suppressed the growth of Ehrlich's ascites carcinoma cells to 4.5×10^-3 and 1.5×10^-2, respectively, by 5-day treatment at 10 μM.
# [6] = system: human lung carcinoma A549 cells; test: Test 3: colony formation of human lung carcinoma A549 cells; assay type: cell-based; details: for tumor growth suppressing effect: A549 cells; for activity at 10 µM: Homo sapiens, A549, 6-hour treatment at 10 μM, read-out: colony formation rate
# Method: as §1
# These isomonools suppressed the colony formation rate of human lung A549 cells to 2.2×10^-3 and 4.1×10^-3, respectively, by 6-hour treatment at 10 μM.
# mammary cancer = test: Test 8: prevention of DMBA-induced mammary cancer; assay type: in vivo, female SD rats; details: DMBA 5 mg/body, 20 weeks, unadministered 15/30
# Method: 6-week old female SD rats (n=90) were treated as follows using 14-methyl-1-pentadecanol as a carcinogenesis-preventing agent.
# Unadministered group: n=30. MF powder feed (ORIENTAL KOBO K.K.) was given as a basic feed.
# Administered group A: n=30. A test feed was given continually (for 7 days). The feed was prepared by admixing the said carcinogenesis-preventing agent (after emulsified in Pluronic F-68) with the abovementioned basic feed in an amount of 50 mg/kg.
# Administered group B: n=30. A test feed was given continually (for 7 days). The feed was prepared by admixing the said carcinogenesis-preventing agent (after emulsified in Pluronic F-68) with the abovementioned basic feed in an amount of 250 mg/kg.
# After the aforementioned treatment, 5 mg/body of […] (DMBA: a carcinogenic compound) was administered by injecting subcutaneously in mammary gland 0.1 ml/body of a 50 mg/ml benzanthracene solution. Then, each of the aforementioned groups was given corresponding feed for 20 weeks.
# After the completion of the treatment, the rats were sacrificed and observed for the occurrence of mammary cancer.
# Ehrlich's ascites cells = test: Test 6 and Comparing Test 2: uptake of bleomycin into Ehrlich's ascites cells; assay type: cell-based, mouse; details: bleomycin 60 μg/ml + isomonool 0.05 μM
# Method: The amount of bleomycin taken up into Ehrlich's ascites cells was determined as a function of time in the case where bleomycin (60 μg/ml) was used in combination with 14-methyl-1-pentadecanol (0.05 μM).
smiles,measurement,setting,value
CCC(C)CCCCCCCCCCCCCO (centres unmarked) [14-methyl-1-hexadecanol],Histological classification (per animal),stomach carcinoma,I and 0
same,Borrmann's Classification (per animal),stomach carcinoma,0
same,"carcinostatic, carcinostasis-reinforcing and carcinogenesis-preventing activities",[1],especially potent in activities
same,mean survival time after inoculation,[2],57.5 days
same,Number of animals with cancer,bladder mucous membrane,0
same,Number of animals with papilloma,bladder mucous membrane,0
same,Number of animals with papillary or tuberous hyperplasia,bladder mucous membrane,0
same,"Cancer, incidence",bladder mucous membrane,0%
same,"Papilloma, incidence",bladder mucous membrane,0%
same,"Papillary or tuberous hyperplasia, incidence",bladder mucous membrane,0%
CC(C)CCCCCCCCCCCCCCCO [16-methyl-1-heptadecanol],Cause of death (per animal),stomach carcinoma,dead in cage
same,Histological classification (per animal),stomach carcinoma,0 and I-II
same,Borrmann's Classification (per animal),stomach carcinoma,0
same,Survival time (per animal),stomach carcinoma,305 days and 337 days
same,Number of animals with cancer,bladder mucous membrane,0
same,Number of animals with papilloma,bladder mucous membrane,0
same,Number of animals with papillary or tuberous hyperplasia,bladder mucous membrane,1
same,"Cancer, incidence",bladder mucous membrane,0%
same,"Papilloma, incidence",bladder mucous membrane,0%
same,"Papillary or tuberous hyperplasia, incidence",bladder mucous membrane,4%
same,mean tumor weight,adenocarcinoma 755 cells,1.6 g
CCC(C)CCCCCCCCCCCCCCCO (centres unmarked) [16-methyl-1-octadecanol],Cause of death (per animal),stomach carcinoma,dead in cage
same,Histological classification (per animal),stomach carcinoma,I and 0 and I-II
same,Borrmann's Classification (per animal),stomach carcinoma,0
same,Survival time (per animal),stomach carcinoma,301 days and 312 days and 337 days
same,mean tumor weight,adenocarcinoma 755 cells,2.3 g
CCCC(C)CCCCCCCCCCCCCO (centres unmarked) [14-methyl-1-heptadecanol],Number of animals with cancer,bladder mucous membrane,0
same,Number of animals with papilloma,bladder mucous membrane,0
same,Number of animals with papillary or tuberous hyperplasia,bladder mucous membrane,0
same,"Cancer, incidence",bladder mucous membrane,0%
same,"Papilloma, incidence",bladder mucous membrane,0%
same,"Papillary or tuberous hyperplasia, incidence",bladder mucous membrane,0%
CC(C)CCCCCCCCCCCCCO [14-methyl-1-pentadecanol],mean survival time after inoculation,"[3]; i.p., 11 mg/kg.day for 5 days (Test 7)",54.3 days
same,Number of surviving mice,[3]; day 14,8
same,Number of surviving mice,[3]; day 15,8
same,Number of surviving mice,[3]; day 16,8
same,Number of surviving mice,[3]; day 17,8
same,Number of surviving mice,[3]; day 18,8
same,Number of surviving mice,[3]; day 19,8
same,Number of surviving mice,[3]; day 20,8
same,Number of surviving mice,[3]; day 23,8
same,Number of surviving mice,[3]; day 33,8
same,Number of surviving mice,[3]; day 41,8
same,Number of surviving mice,[3]; day 45,6
same,Number of surviving mice,[3]; day 52,4
same,Number of surviving mice,[3]; day 57,4
same,Number of surviving mice,[3]; day 60,4
same,Histological classification (per animal),stomach carcinoma,I and 0
same,Borrmann's Classification (per animal),stomach carcinoma,0
same,Survival time (per animal),stomach carcinoma,337 days
same,tumor growth suppressing effect,[4],effective
same,growth suppressed to,[4],7.8×10^-3
same,"carcinostatic, carcinostasis-reinforcing and carcinogenesis-preventing activities",[1],especially potent in activities
same,mean survival time after inoculation,[2],≥ 60 days
same,tumor growth suppressing effect,[5],effective
same,activity at 10 µM,[5],0.45%
same,tumor growth suppressing effect,[6],effective
same,activity at 10 µM,[6],0.22%
same,Number of animals with mammary cancer/Number of tested animals,"mammary cancer; group A, 50 mg/kg in feed",8/30
same,Number of animals with mammary cancer/Number of tested animals,"mammary cancer; group B, 250 mg/kg in feed",4/30
same,Bleomycin uptake,Ehrlich's ascites cells; 30 min,0.13 μg/mg Ehrlich's cell
same,Bleomycin uptake,Ehrlich's ascites cells; 60 min,0.26 μg/mg Ehrlich's cell
same,Bleomycin uptake,Ehrlich's ascites cells; 120 min,0.39 μg/mg Ehrlich's cell
same,Bleomycin uptake,Ehrlich's ascites cells; 180 min,0.55 μg/mg Ehrlich's cell
same,Bleomycin uptake,Ehrlich's ascites cells; Initial,0 μg/mg Ehrlich's cell
CC(C)CCCCCCCCCCCCCCCCCO [18-methyl-1-nonadecanol],tumor growth suppressing effect,[4],effective
same,growth suppressed to,[4],6.5×10^-3
same,Number of animals with cancer,bladder mucous membrane,0
same,Number of animals with papilloma,bladder mucous membrane,0
same,Number of animals with papillary or tuberous hyperplasia,bladder mucous membrane,2
same,"Cancer, incidence",bladder mucous membrane,0%
same,"Papilloma, incidence",bladder mucous membrane,0%
same,"Papillary or tuberous hyperplasia, incidence",bladder mucous membrane,7%
same,tumor growth suppressing effect,[5],effective
same,activity at 10 µM,[5],1.5%
same,tumor growth suppressing effect,[6],effective
same,activity at 10 µM,[6],0.41%
